Source: patent US20260266798A1, “SYSTEMS AND METHODS REGARDING PEAK EXPLORATION AND ARTIFICIAL TISSUE RESPONSE INCLUDING FOR CONTRACTION TYPE CLASSIFICATION OF ENGINEERED TISSUE” (VALO HEALTH, INC., priority 2023, published 2026)

Test system: artificial tissue
Assay: Contraction type classification (single/double) of contractile force waveforms of artificial tissue under baseline and perturbed conditions (FIG. 27)
Assay type: cell-based
Details: functional response = contractile force; first and second (increasing) dose of isoproterenol vs reference/control conditions; shown most clearly at the second dose
Source text: The waveforms comprise functional responses (contractile force) of an artificial tissue under baseline conditions and two perturbed conditions. Examples of perturbed conditions are treatment of a tissue with a drug or compound, different cell lines, different disease states, physical perturbation of the artificial tissue, changes made to the platform or bioreactor containing the artificial tissue, and the like. The baseline waveform 2702, the first perturbed waveform 2704, and the second perturbed waveform 2706 are associated with a baseline classification vector 2708, a first perturbed classification vector 2710, and a second perturbed classification vector 2712 respectively. […]
The classification vectors (e.g., the baseline classification vector 2708) are obtained by extracting a plurality of functional response waveforms from each waveform (as described in more detail below in relation to FIG. 33) and then determining a contraction type for each functional response waveform using a prediction model (e.g., the prediction model 600 described above in relation to FIGS. 6 and 7). […] In contrast, the third classification value 2720 is a double contraction type (as indicated by the dark gray shading) because the associated functional response waveform 2724 is determined by the prediction model to contain a double contraction. […]

## CC(C)NCC(O)c1ccc(O)c(O)c1 (stereo not shown) [isoproterenol]
  contraction type classification vector of the perturbed waveforms compared to the baseline classification vector: induces regular double contractions of the artificial tissue
